Results as given in patent publication US20070112175A1, “Determining drug resistance” (Children's Cancer Institute Australia for Medical Research, priority 2003, published 2007).

Columns and labels:
[1] = system: NIH3T3 mutant γ-actin transfectant cells; assay: Drug treatment and α-tubulin immunofluorescence of microtubules; assay type: cell-based, mouse; settings: 10 μM, 30 min
Protocol: NIH3T3 mutant γ-actin transfectant cells were grown to ˜80% confluency in 4-well chamber slides (Nalge Nunc International, Naperville, Ill.) and treated with either 0.5% DMSO (vehicle control), 10 μM VLB, or 10 μM dEpoB, for 30 min, prior to immunostaining for total α-tubulin using standard methods. Epifluorescence imaging was performed using a Zeiss Axioscope 100 linked to a cooled CCD camera.

[2] = system: CEM/VLB100 cells; assay: Resistance of vinblastine-selected subline CEM/VLB100; assay type: cell-based, Human; settings: CEM/VLB100 subline of CCRF-CEM
Text: (§1) Human T-cell acute lymphoblastic leukaemia cells, CCRF-CEM, and drug resistant sublines, CEM/VCR R (vincristine-selected) and CEM/VLB100 (vinblastine-selected), and CEM/dEpoB 1×, CEM/dEpoB 2×, CEM/dEpoB 4×, CEM/dEpoB 10×(desoxyepothilone B-selected), were maintained in RPMI 1640 containing 10% FCS as suspension cultures. The CEM/VCRR are 22,600-fold and CEM/VLB100 are 6,667-fold resistant to vincristine and vinblastine respectively. Cells were harvested for protein analysis by centrifugation at 1500 rpm for 5 min.

[3] = system: NIH3T3 mutant γ-actin transfectant cells; assay: Drug resistance clonogenic assay; assay type: cell-based, mouse; settings: P<0.05
Protocol: DNA (1 μg) was transfected into subconfluent NIH3T3 mouse fibroblast cells using the Fugene (Roche) transfection reagent according to the manufacturer's instructions. Stable transfectants were selected in 1 mgm1^−1 G418 for 16 days. Levels of γ-actin expression were determined by immunoblotting as described above.
The ability of mutant γ-actin to confer resistance to antimicrotubule agents was determined using clonogenic assays with slight modifications. NIH3T3 mutant γ-actin transfectant cells were seeded at 100 cells/well in replicate wells of a 24-well dish containing increasing concentrations of VLB. The media was replaced after 3 days with drug-free DME/10%FCS. After a further 4 days the media was removed and colonies stained with 0.1% crystal violet. The densitometric volume of each well was determined using the Quantity One software package (Biorad) and expressed relative to the respective drug-free control cells. The concentration that kills 50% of cells (ID50) and statistical analyses were then performed. The relative resistance was determined by dividing the ID50 of each γ-actin transfectant cell line with the ID50 of the empty vector cells.

[4] = system: CEM/VCR R cells; assay: Resistance of vincristine-selected subline CEM/VCR R; assay type: cell-based, Human; settings: CEM/VCR R subline of CCRF-CEM
Text: as §1

[5] = empty vector and wild type γ-actin expressing cells

Row | Compound | effect on cell shape and microtubule network [1, 5] | effect on cell shape and microtubule network ([1]; mutant γ-actin transfectants) | fold resistant to vinblastine [2] | relative resistance (ID50 transfectant / ID50 empty vector) ([3]; P98L γ-actin mutant vs empty vector and wildtype γ-actin cells) | relative resistance (ID50 transfectant / ID50 empty vector) ([3]; V103L γ-actin mutant vs empty vector and wildtype γ-actin cells) | fold resistant to vincristine [4]
1 | C/C1=C/C[C@@H](/C(C)=C/c2csc(C)n2)OC(=O)C[C@H](O)C(C)(C)C(=O)[C@H](C)[C@@H](O)[C@@H](C)CCC1 [dEpoB, Desoxyepothilone B] | marked structural changes | microtubule network remains largely intact | – | – | – | –
2 | CC[C@]1(O)C[C@@H]2CN(CCc3c([nH]c4ccccc34)[C@@](C(=O)OC)(c3cc4c(cc3OC)N(C)[C@H]3[C@@](O)(C(=O)OC)[C@H](OC(C)=O)[C@]5(CC)C=CCN6CC[C@]43[C@@H]65)C2)C1 [vinblastine] | marked structural changes | microtubule network remains largely intact | 6,667 fold | over 3 fold | over 2 fold | –
3 | CC[C@]1(O)C[C@H]2CN(CCc3c([nH]c4ccccc34)[C@@](C(=O)OC)(c3cc4c(cc3OC)N(C=O)[C@H]3[C@@](O)(C(=O)OC)[C@H](OC(C)=O)[C@]5(CC)C=CCN6CC[C@]43[C@@H]65)C2)C1 [vincristine] | – | – | – | – | – | 22,600 fold
